Laboratory results published in US7101844B2, “Cytoplasmic transduction peptides and uses thereof” (Creagene, Inc., priority 2002, dated 2006).
“Also recorded” adds a separate entry of the source.

System: HeLa cells
Assay: Subcellular localization of CTP-β-gal by confocal scanning microscope
Type: cell-based
Conditions: β-galactosidase fusion protein, 100 μg/ml, 1 hr
From the text: To select cytoplamic transduction peptides (CTPs) of interest, HeLa cells were transduced with CTP-β-galactosidase, and then examined under the confocal scanning microscope. Before the confocal analysis, cells were stained with mouse anti-β-galactosidase antibody and 2nd antibodies conjugated with FITC (Fluorescence-iso-thio-cyanate) or with PE (phycoerythrin) together with DNA staining reagent (green fluorescence SYTO-16 DNA staining dye, Molecular Probe). First, HeLa cells (5×10^5 cells/ml) were plated onto a 6-well plate containing sterilized cover-slips and cultured overnight at 37° C. CO2 incubator. The cells were washed with PBS (pH 7.4) and 1 ml of an OPTI-MEM I medium was added, followed by treatment with candidate CTP-fused proteins (100 μg/ml). As a positive control, PTD-β-galactosidase fusion protein was employed, and as a negative control, only β-galactosidase protein was used. Following the treatment with candidate CTP-β-galactosidase fusion proteins, cells were incubated for 1 hr at 37° C. incubator. The cells were rinsed three times with PBS and fixed with 2% paraformaldehyde for 20 min at 4° C. HeLa cells fixed were washed twice with washing buffer (PBS containing 0.2% BSA and 0.02% sodium azide). To stain the cells with antibody, cells were pre-treated with 0.5% Triton X-100 (in PBS, Sigma) at 4° C. for 20 min. Cells were washed three times with washing buffer and then stained with mouse anti-β-galactosidase antibody (diluted 1:2,000, Sigma) for 1 hr at 4° C. as a primary antibody and then washed three times with washing buffer. Cells were then incubated with FITC-conjugated goat anti-mouse IgG (diluted 1:2,000, Jackson Laboratory) as a secondary antibody for 20 min at 4° C. Washed 3 times with the same washing buffer, cells were fixed on a slide glass with fluorescence mounting medium (DAKO) and the edge of slide glass was sealed with nail vanish.
Double staining was carried out with SYTO-16 DNA staining dye as follows: First, the cells were incubated with the primary antibodies under the same conditions and rinsed three times. Then, the cells were incubated at 4° C. for 20 min with PE-conjugated goat anti-mouse IgG PE (diluted 1:2,000, Jackson Laboratory). Washed three times with washing buffer, cells were incubated with SYTO-16 DNA staining dye (diluted 1:1,000, DAKO) for 20 min at 4° C. Cells were fixed and sealed on a slide glass and then examined under a confocal laser scanning microscope.
In the present experiment, LEICA TCS NT SP confocal microscope (LEICA Lasertech GmbH, Heidelverg, Germany) was employed, which was equipped with lager generator of argon (Ar) and krypton (Kr), scanning device, and filter capable of detecting FITC (510–550 nm) and PE (600–660) at independent channel. Photographs were taken by PL-APO X100 objective. For single staining, the cells were sectioned into 4-layers and fluorescence and transmission photographs were taken. For double staining, FITC, PE, and transmission photographs were taken using optimal respective filter.

CTP512: CTP (2G4R8R9R), sequence YGRRARRRRRR; representative CTP used from Example 5-4 on
cytoplasmic remaining property / subcellular localization: excellent cytoplamic localization property; also recorded: excellent cytoplamic remaining property; also recorded: significantly high | cytoplasmic remaining property / subcellular localization (listed as CTP 512): excellent cytoplasmic remaining property
